Measurements: US20060111381A1, “Amidine compounds” (priority 2002, published 2006)
Where “and” joins values, the source holds several entries; their conditions need not be identical. Equal values may be shown once. Where a name gives a salt, the structure may show the parent alone.

Key:
ICR mice [1] = test: Deaths and adverse signs observed in writhing-study mice; assay type: in vivo
Description: (§1) Testing on compound KRS-6-48 was carried out under contract by MDS Services—Taiwan Ltd. KRS-6-48 was evaluated for possible analgesic activity in the phenylquinone-induced writhing model in mice (Siegmund et al, 1957). A serial 2-fold dosage variance was used in the test, from 128 mg/kg to 1 mg/kg (8 doses in total). Groups of 3 male or female ICR mice weighing 22±2 g were employed. Variant doses (1, 2, 4, 8, 16, 32, 64 and 128 mg/kg) of test substances were administered intraperitoneally (IP). A vehicle of 2% Tween 80 in 0.9% NaCl was used for the intraperitoneal injection. The control group received vehicle alone. […] A reduction in the number of writhes by 50 percent or more (≧50%) relative to the vehicle-treated group indicated possible analgesic activity.
as §1, with “In each case, a” for “Testing on compound KRS-6-48 was carried out under contract by MDS Services—Taiwan Ltd. KRS-6-48 was evaluated for possible analgesic activity in the phenylquinone-induced writhing model in mice (Siegmund et al, 1957). A”

human δ-opiate receptor = biological target: T1, human δ-opiate receptor (Homo sapiens, UniProt P41143); test: In vitro opiate receptor radioligand binding assay (MDS 260110); conditions: test compound 10 μM, read-out: Percentage Inhibition of Radioligand Binding
T1 construct: purchased MDS Pharma Services 260110
T1 sequence (P41143 whole entry): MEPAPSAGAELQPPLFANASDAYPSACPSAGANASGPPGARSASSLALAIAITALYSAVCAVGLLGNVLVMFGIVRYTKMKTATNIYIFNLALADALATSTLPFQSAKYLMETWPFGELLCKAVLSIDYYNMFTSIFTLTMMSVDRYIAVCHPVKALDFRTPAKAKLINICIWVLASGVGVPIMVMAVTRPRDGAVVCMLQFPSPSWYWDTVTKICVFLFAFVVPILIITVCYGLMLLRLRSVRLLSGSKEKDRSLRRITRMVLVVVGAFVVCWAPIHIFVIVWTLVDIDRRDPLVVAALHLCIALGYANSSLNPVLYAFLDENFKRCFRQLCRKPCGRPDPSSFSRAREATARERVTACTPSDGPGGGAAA
Description: (§2) To characterise the target specificity of the compounds, KRS-6-41, KRS-6-48 and KRS-6-51 were tested at a concentration of 10 μM for their ability to inhibit the binding of a radioligand to human δ-, κ-, or μ-opiate receptors in vitro using commercially available assays (MDS Pharma Services; assay catalogue numbers 260110, 260210 and 260410 respectively).

ICR mice [2] = test: Phenylquinone-induced writhing model in mice (writhes counted in following 5-10 minute period); assay type: in vivo; conditions: for No. of Writhings, Individual: individual mice; for % Inhibition: relative to vehicle group
Description: as §1
Testing on compounds KRS-6-41, KRS-6-51, and KRS-6-71 was also carried out under contract by MDS Services—Taiwan Ltd. The study was designed to evaluate the effects of the compounds as analgesics in the phenylquinone-induced writhing assay described in detail in Example 10 (Siegmund et al, 1957).
as §1, with “In each case, a” for “Testing on compound KRS-6-48 was carried out under contract by MDS Services—Taiwan Ltd. KRS-6-48 was evaluated for possible analgesic activity in the phenylquinone-induced writhing model in mice (Siegmund et al, 1957). A”

ICR mice [3] = test: Straub tail behaviour (indicator of CNS activity) in writhing-study mice; conditions: for Straub tail behaviour: any doses (1 to 128 mg/kg IP)
human μ-opiate receptor = biological target: T2, human μ-opiate receptor (Homo sapiens, UniProt P35372); test: In vitro opiate receptor radioligand binding assay (MDS 260410); conditions: test compound 10 μM, read-out: Percentage Inhibition of Radioligand Binding
T2 construct: purchased MDS Pharma Services 260410
T2 sequence (P35372 whole entry): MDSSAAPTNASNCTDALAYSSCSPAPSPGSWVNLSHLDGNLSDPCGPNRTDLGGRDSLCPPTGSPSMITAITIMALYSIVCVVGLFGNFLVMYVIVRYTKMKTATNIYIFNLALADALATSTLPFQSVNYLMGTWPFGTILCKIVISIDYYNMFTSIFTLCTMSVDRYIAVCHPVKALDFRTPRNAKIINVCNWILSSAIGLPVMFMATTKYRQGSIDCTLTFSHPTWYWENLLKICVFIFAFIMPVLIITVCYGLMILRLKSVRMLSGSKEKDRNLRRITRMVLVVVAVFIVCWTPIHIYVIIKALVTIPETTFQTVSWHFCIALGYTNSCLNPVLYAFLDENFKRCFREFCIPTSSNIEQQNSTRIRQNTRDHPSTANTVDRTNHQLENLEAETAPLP
Description: as §2

human κ-opiate receptor = biological target: T3, human κ-opiate receptor (Homo sapiens, UniProt P41145); test: In vitro opiate receptor radioligand binding assay (MDS 260210); conditions: test compound 10 μM, read-out: Percentage Inhibition of Radioligand Binding
T3 construct: purchased MDS Pharma Services 260210
T3 sequence (P41145 whole entry): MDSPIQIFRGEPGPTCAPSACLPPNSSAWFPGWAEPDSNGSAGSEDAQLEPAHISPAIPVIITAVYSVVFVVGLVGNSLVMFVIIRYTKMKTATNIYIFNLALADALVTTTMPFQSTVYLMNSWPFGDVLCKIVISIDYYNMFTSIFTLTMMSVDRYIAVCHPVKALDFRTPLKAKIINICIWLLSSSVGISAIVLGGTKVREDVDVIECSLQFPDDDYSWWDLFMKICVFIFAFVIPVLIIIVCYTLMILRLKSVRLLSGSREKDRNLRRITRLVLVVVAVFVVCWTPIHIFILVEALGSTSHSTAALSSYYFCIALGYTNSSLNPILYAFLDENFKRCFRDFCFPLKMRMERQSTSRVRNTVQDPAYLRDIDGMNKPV
Description: as §2

ICR mice [4] = test: Phenylquinone-induced writhing model in mice, KRS-6-98 study (writhes counted in following 10-15 minute period); assay type: in vivo; conditions: for Number of Writhings, Average / Number of Writhings, Individual / % Inhibition: 10-15 minute period; for Number of Writhings, Individual: individual mice; for % Inhibition: relative to vehicle group
Description: Testing of compound KRS-6-98 was carried out under contract by MDS Pharma Services—Taiwan. The study was essentially the same as that set out in Examples 12 and 13, and was designed to evaluate the effect of the compound as an analgesic in the phenylquinone-induced writhing assay described in detail in Example 10 (Siegmund et al, 1957).
A serial two-fold dosage variance was used in the test, from 128 mg/kg to 1 mg/kg (8 doses in total). Twenty six groups of 3 male or female ICR mice weighing 22±2 g were employed. The variant doses of the test substance were administered intraperitoneally (IP). A vehicle of 2% Tween 80 in 0.9% NaCl was used for the intraperitoneal injection. The control group received the vehicle alone. […] A reduction of the number of writhes by 50% or more (≧50%) relative to the vehicle-treated group indicate a possible analgesic activity.

## CCC(=Nc1ccccc1)NCCCN1CC[C@]23c4c5ccc(O)c4O[C@H]2[C@@H](O)C=CC3[C@H]1C5 (stereo partly drawn) (as salt: HCl) [KRS-6-48, (5α,6α)-7,8-didehydro-4,5-epoxy-17-((N-phenylpropionamidino)-propyl)morphinan, 3,6-diol]
other
  melting point: 188 to 190 °C

## CC(=N)NCCCN1CC[C@]23c4c5ccc(O)c4O[C@H]2[C@@H](O)C=CC3[C@H]1C5 (stereo partly drawn) [KRS-6-41, (5α,6α)-7,8-didehydro-4,5-epoxy-17-(3-acetamidinopropyl)morphinan, 3,6-diol]
ICR mice [1]; 64 mg/kg IP
  test animals died: 1 of 3
ICR mice [1]; 128 mg/kg IP
  test animals died: 3 of 3
Human δ-opiate receptor
  inhibition at 10 µM: 68%
ICR mice [2]; 1 mg/kg IP
  No. of Writhings, Average: 14
  No. of Writhings, Individual: 12 and 15 and 14
  % Inhibition: 0%
ICR mice [2]; 2 mg/kg IP
  No. of Writhings, Average: 14
  No. of Writhings, Individual: 14 and 6 and 22
  % Inhibition: 0%
ICR mice [2]; 4 mg/kg IP
  No. of Writhings, Average: 12
  No. of Writhings, Individual: 14 and 8 and 15
  % Inhibition: 8%
ICR mice [2]; 8 mg/kg IP
  No. of Writhings, Average: 10
  No. of Writhings, Individual: 6 and 10 and 14
  % Inhibition: 23%
ICR mice [2]; 16 mg/kg IP
  No. of Writhings, Average: 9
  No. of Writhings, Individual: 5 and 16 and 6
  % Inhibition: 31%
ICR mice [2]; 32 mg/kg IP
  No. of Writhings, Average: 8
  No. of Writhings, Individual: 4 and 10 and 11
  % Inhibition: 38%
ICR mice [2]; 64 mg/kg IP
  No. of Writhings, Individual: 4 and 14 and died
ICR mice [2]; 128 mg/kg IP
  No. of Writhings, Individual: died
ICR mice [2]; at doses of 32, 16, 8 and 4 mg/kg IP
  inhibition of writhing (in words): a moderate level of inhibition of writhing
ICR mice [3]
  Straub tail behaviour: None exhibited Straub tail behaviour
Human μ-opiate receptor
  inhibition at 10 µM: 97%
Human κ-opiate receptor
  inhibition at 10 µM: 58%

## CCC(=Nc1ccccc1)NCCCN1CC[C@]23c4c5ccc(O)c4O[C@H]2[C@@H](O)C=CC3[C@H]1C5 (stereo partly drawn) [KRS-6-48, (5α,6α)-7,8-didehydro-4,5-epoxy-17-((N-phenylpropionamidino)-propyl)morphinan, 3,6-diol]
Human δ-opiate receptor
  inhibition at 10 µM: 29%
ICR mice [2]; 1 mg/kg IP
  No. of Writhings, Average: 14
  No. of Writhings, Individual: 10 and 20 and 13
  % Inhibition: 0%
ICR mice [2]; 2 mg/kg IP
  No. of Writhings, Average: 13
  No. of Writhings, Individual: 8 and 20 and 10
  % Inhibition: 0%
ICR mice [2]; 4 mg/kg IP
  No. of Writhings, Average: 9
  No. of Writhings, Individual: 10 and 8 and 9
  % Inhibition: 31%
ICR mice [2]; 8 mg/kg IP
  No. of Writhings, Average: 7
  No. of Writhings, Individual: 12 and 4 and 5
  % Inhibition: 46%
ICR mice [2]; 16 mg/kg IP
  No. of Writhings, Average: 6
  No. of Writhings, Individual: 1 and 13 and 4
  % Inhibition: 54%
ICR mice [2]; 32 mg/kg IP
  No. of Writhings, Average: 1
  No. of Writhings, Individual: 0 and 1 (2×)
  % Inhibition: 92%
ICR mice [2]; 64 mg/kg IP
  No. of Writhings, Average: 0
  No. of Writhings, Individual: 0
  % Inhibition: 100%
ICR mice [2]; 128 mg/kg IP
  No. of Writhings, Average: 0
  No. of Writhings, Individual: 0
  % Inhibition: 100%
ICR mice [2]; at doses of 128, 64, 32 and 16 mg/kg IP
  analgesic activity in writhing model (in words): Very significant activity
ICR mice [3]
  Straub tail behaviour: did not exhibit Straub tail behaviour
Human μ-opiate receptor
  inhibition at 10 µM: 97%
Human κ-opiate receptor
  inhibition at 10 µM: 48%

## CC(=Nc1ccccc1)NCCCN1CC[C@]23c4c5ccc(O)c4O[C@H]2[C@@H](O)C=CC3[C@H]1C5 (stereo partly drawn) [KRS-6-51, (5α,6α)-7,8-didehydro-4,5-epoxy-17-((N-phenylacetamidino)-propyl)morphinan, 3,6-diol]
ICR mice [1]; 128 mg/kg IP
  test animals exhibiting tremors and edema: 2 of the 3
ICR mice [1]; 128 mg/kg IP, within 15 minutes
  test animals died within 15 minutes: 21 of the 3
Human δ-opiate receptor
  inhibition at 10 µM: 37%
ICR mice [2]; 1 mg/kg IP
  No. of Writhings, Average: 12
  No. of Writhings, Individual: 11 and 14 and 12
  % Inhibition: 20%
ICR mice [2]; 2 mg/kg IP
  No. of Writhings, Average: 11
  No. of Writhings, Individual: 18 and 9 and 7
  % Inhibition: 27%
ICR mice [2]; 4 mg/kg IP
  No. of Writhings, Average: 10
  No. of Writhings, Individual: 10 and 13 and 7
  % Inhibition: 33%
ICR mice [2]; 8 mg/kg IP
  No. of Writhings, Average: 8
  No. of Writhings, Individual: 9 and 8 (2×)
  % Inhibition: 47%
ICR mice [2]; 16 mg/kg IP
  No. of Writhings, Average: 8
  No. of Writhings, Individual: 12 and 4 and 7
  % Inhibition: 47%
ICR mice [2]; 32 mg/kg IP
  No. of Writhings, Average: 5
  No. of Writhings, Individual: 3 and 5 and 7
  % Inhibition: 67%
ICR mice [2]; 64 mg/kg IP
  No. of Writhings, Average: 0
  No. of Writhings, Individual: 0
  % Inhibition: 100%
ICR mice [2]; 128 mg/kg IP
  No. of Writhings, Individual: died and 0 (2×)
ICR mice [2]; at doses of 64 and 32 mg/kg IP
  analgesic activity in writhing model (in words): significant activity
ICR mice [3]
  Straub tail behaviour: None of the test animals exhibited Straub tail behaviour
Human μ-opiate receptor
  inhibition at 10 µM: 97%
Human κ-opiate receptor
  inhibition at 10 µM: 54%

## CCC(=Nc1ccc(F)cc1)NCCCN1CC[C@]23c4c5ccc(O)c4O[C@H]2[C@@H](O)C=C[C@H]3[C@H]1C5 [KRS-6-98]
ICR mice [4]; 1 mg/kg IP
  Number of Writhings, Average: 10
  Number of Writhings, Individual: 12 and 10 and 8
  % Inhibition: 44%
ICR mice [4]; 2 mg/kg IP
  Number of Writhings, Average: 7
  Number of Writhings, Individual: 7 (2×) and 6
  % Inhibition: 61%
ICR mice [4]; 4 mg/kg IP
  Number of Writhings, Average: 7
  Number of Writhings, Individual: 10 and 7 and 4
  % Inhibition: 61%
ICR mice [4]; 8 mg/kg IP
  Number of Writhings, Average: 5
  Number of Writhings, Individual: 6 and 7 and 2
  % Inhibition: 72%
ICR mice [4]; 16 mg/kg IP
  Number of Writhings, Average: 4
  Number of Writhings, Individual: 3 and 6 and 4
  % Inhibition: 78%
ICR mice [4]; 32 mg/kg IP
  Number of Writhings, Average: 0
  Number of Writhings, Individual: 0
  % Inhibition: 100%
ICR mice [4]; 64 mg/kg IP
  Number of Writhings, Average: 0
  Number of Writhings, Individual: 0
  % Inhibition: 100%
ICR mice [4]; 128 mg/kg IP
  Number of Writhings, Average: 0
  Number of Writhings, Individual: 0
  % Inhibition: 100%
ICR mice [4]; at all dose levels from 128 down to 2 mg/kg IP
  analgesic activity in writhing model (in words): significant activity

## CN1CC[C@]23c4c5ccc(O)c4O[C@H]2[C@@H](O)C=C[C@H]3[C@H]1C5 [Morphine, reference compound]
ICR mice [2]; 3 mg/kg IP
  No. of Writhings, Average: 0
  No. of Writhings, Individual: 0
  % Inhibition: 100%
ICR mice [3]; 3 mg/kg IP
  test animals exhibiting Straub tail phenomenon: 2 of 3
